Results as given in patent publication US20250228899A1, “GENERATING AND UTILIZING ADULT HEPATOCYTE ORGANOIDS” (University of Washington, priority 2021, published 2025).

Test system: adult human hepatocytes
Test: Adult human hepatocyte organoids grown in different concentrations of A83-01
Assay type: cell-based
Conditions: albumin secretion and organoid cross-sectional area readouts
Protocol: In this Example, adult human hepatocytes were grown in different concentrations of A83-01, ranging from 0 nM to 40 nM. FIG. 16 illustrates albumin secretion of hepatocytes grown with 6 different concentrations of A83-01 measured by human albumin ELISA. FIG. 17 illustrates average cross-sectional area of organoids in individual wells grown in 4 different concentrations of A83-01 ranging from 0 to 100 nM. Data is represented as the mean, plus or minus standard deviation of more than 20 wells. FIG. 18 illustrates albumin secretion measured by human Albumin ELISA, comparing adult human hepatocyte organoids grown in 5 different concentrations of A83-01 ranging from 0 nM to 40 nM. The results of these studies illustrate that medium containing less than 50 nM of A83-01 is effective for adult hepatocyte growth.

Cc1cccc(-c2nn(C(=S)Nc3ccccc3)cc2-c2ccnc3ccccc23)n1 [A83-01]
A83-01 concentration in medium effective for adult hepatocyte growth: less than 50 nM
